Source: patent US20250177405A1, “METHODS OF TREATING NEUROLOGICAL AND CARDIOVASCULAR CONDITIONS” (ASTROCYTE PHARMACEUTICALS, INC., priority 2021, published 2025)

Key:
[1] = system: traumatic brain injury (TBI) in mice; test: mouse traumatic brain injury (TBI) model; details: in vivo
Method: Animals and traumatic brain injury (TBI): TBI is performed with a controlled closed skull injury model as described in Talley-Watts et al. 2012 (J. Neurotrauma 30, 55-66). Following the method described therein, a pneumatic impact device is used to generate a moderate TBI leaving the skull and dura matter intact. To achieve this, C57BL/6 mice are anesthetized with isoflurane (3% induction, 1% maintenance) in 100% oxygen. A body temperature of 37° C. is maintained using a temperature-controlled heated surgical table. A small midline incision is made on the scalp using aseptic surgical techniques. A 5 mm stainless steel disc is positioned on the skull and fixed using superglue on the right parietal bone between bregma and lamda over the somatosensory cortex. The mouse is then positioned on a stage directly under the pneumatic impact tip. […] Mice are placed in a Thermo-Intensive Care Unit (Braintree Scientific model FV-1; 37° C.; 27% O2) and monitored until fully awake and moving freely. […]
Western Blot Analysis for GFAP: At selected survival times, mice are anesthetized under isoflurane and sacrificed. […] The homogenate is transferred to a 2 mL tube and centrifuged at 1000 g for 10 minutes at 4° C. and the supernatant is collected and analyzed. Protein concentration is determined by the BCA assay using a 1:50 dilution. […]

[2] = plasma protein binding (free fraction); type: in vitro ADME; details: mouse
Description: (§1) Example 3 of U.S. Pat. No. 9,789,131, which is incorporated herein by reference, describes assays for determining the plasma and brain free fraction of certain compounds such as I-1. Compounds described herein may be evaluated using such assays or similar variants thereof.

[3] = brain tissue binding (free fraction); type: in vitro ADME, mouse; details: mouse brain tissue
Description: as §1

[4] = system: rodent model of cerebral ischemia; test: reproduction of Roucher study: ATP decline during cerebral ischemia; type: in vivo, rat; details: dose of 0.02 mg/kg, rats
Description: As part of the current study, we first reproduced the original Roucher results.
(§2) We therefore performed the same study using ^31P-ATP and measured the receptor engagement in the brain associated with the beneficial ATP effects.

A1R = target: T1, A1R (Rattus norvegicus, UniProt P25099); test: estimated brain receptor occupancy of R-PIA at A1R; type: in vivo; details: associated with beneficial ATP effects
T1 construct: measured the receptor engagement in the brain associated with the beneficial ATP effects; from tissue; host or cells: brain of living rats (cerebral ischemia model)
T1 sequence (P25099 1-326): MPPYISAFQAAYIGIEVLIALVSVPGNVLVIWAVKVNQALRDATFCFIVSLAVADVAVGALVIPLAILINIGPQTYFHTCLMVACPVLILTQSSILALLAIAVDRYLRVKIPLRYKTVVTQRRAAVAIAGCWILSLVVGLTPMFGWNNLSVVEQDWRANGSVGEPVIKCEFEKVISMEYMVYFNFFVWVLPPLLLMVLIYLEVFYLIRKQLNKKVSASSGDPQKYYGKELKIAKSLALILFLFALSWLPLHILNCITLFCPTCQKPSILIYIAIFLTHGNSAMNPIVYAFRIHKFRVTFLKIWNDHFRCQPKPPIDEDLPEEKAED
Description: as §2

A3R [5] = target: T2, A3R (Rattus norvegicus, UniProt P28647); test: estimated brain receptor occupancy of R-PIA at A3R; type: in vivo; details: associated with beneficial ATP effects
T2 sequence (P28647 1-320): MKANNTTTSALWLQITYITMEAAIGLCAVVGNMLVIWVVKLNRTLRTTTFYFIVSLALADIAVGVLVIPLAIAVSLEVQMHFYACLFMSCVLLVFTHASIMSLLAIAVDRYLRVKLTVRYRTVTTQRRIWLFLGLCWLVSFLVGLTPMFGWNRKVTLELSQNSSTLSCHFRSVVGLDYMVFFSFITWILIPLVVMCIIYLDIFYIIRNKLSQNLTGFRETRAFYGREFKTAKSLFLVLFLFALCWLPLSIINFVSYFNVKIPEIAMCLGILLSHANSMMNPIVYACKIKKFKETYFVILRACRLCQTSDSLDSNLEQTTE
Description: as §2

A3R [6] = target: T2, A3R; details: cited from earlier work
[7] = system: reversible forebrain ischemia in the rat; details: cited from earlier work

Row | free (unbound) fraction in plasma [2] | free (unbound) fraction in brain [3] | estimated RO % for A1R (A1R) [%] | estimated RO % for A3R (A3R [5]) [%] | SMILES | efficacy in mouse TBI model [1] | decline in ATP during ischemia [4] | Ki (A3R [6]) [nM] | intracellular pH ([7]; 30-min ischemia, reference group 6.30) | effect on cerebral metabolism before ischemia ([7]; before ischemia) | phosphocreatine, % of the control level ([7]; end of 30-min ischemia, reference group 27+/−9%) | ATP, % of the control level ([7]; end of 30-min ischemia, reference group 40+/−23%) | inorganic phosphate, % of the control level ([7]; end of 30-min ischemia, reference group 905+/−229%) | recovery of PCr, ATP, Pi, and pHi to control levels ([7]; recirculation, versus reference group)
1 | 0.002 | 0.002 | – | – | CNC(=O)[C@H]1O[C@@H](n2cnc3c(NCc4cccc(I)c4)nc(Cl)nc32)[C@H](O)[C@@H]1O [Cl-IB-MECA, 2-Chloro-N^6-(3-iodobenzyl)-adenosine-5′-N-methyluronamide, reference compound] | weakly active | – | – | – | – | – | – | – | –
2 | – | – | 16 | 1 | C[C@H](Cc1ccccc1)Nc1ncnc2c1ncn2[C@@H]1O[C@H](CO)[C@@H](O)[C@H]1O [Compound I-25, N^6-(L-2-Phenylisopropyl)adenosine] | – | partial reversal | 158 | 6.40+/−0.10 | no effect | 43+/−11% | 58+/−12% | 672+/−210% | faster recovery
